Assay results taken from publication PMC7805408, “Filaggrin Polymorphisms and the Uptake of Chemicals through the Skin—A Human Experimental Study” (Environmental Health Perspectives, 2021).

Tests used:
[1] = Population toxicokinetic analysis of dermal absorption and disposition (three-compartment model, Monolix); type: in vivo, human; details: for Lag time (mean±SD): dermal absorption; for Lag time (mean±SD) / Absorption rate constant (mean±SD): unadjusted; for Absorption rate constant (mean±SD): dermal; for Rate constant K21 (mean ± SD): from the central to the peripheral compartment; for Rate constant K12 (mean ± SD): from the peripheral to the central compartment
Experimental: Dermal absorption and disposition were assessed by population toxicokinetic analysis. A three-compartment structural model representing skin and central and peripheral tissues was used (Figure 2). The skin compartment encompasses a lag time for skin penetration ( Tlag ) and an absorption rate constant ( ka ). Urinary excretion from the central compartment was described by an elimination rate constant ( ke ), and exchange between the central and peripheral compartments was described by two rate constants ( k12 and k21 ). All rate constants are first order.
Figure 2. Compartmental model used in the toxicokinetic analysis: lag time for skin penetration ( Tlag , h), first order skin absorption constant ( Ka , h-1), volume of central compartment (V, L), peripheral compartment (P) first order transfer rate constants ( k12 and k21 , h^−1 ), and first order elimination rate constant (k, h^−1 ).
The input data were the dermally applied dose (nmol) at time zero and the mid–time point (h) and the excretion rate (nmol/h) of each chemical in the urine samples. Subjects excluded from the AUC analysis were also excluded from the toxicokinetic analysis (one FLG null carrier and one wt carrier for oxybenzone).
The software Monolix (version 2019R2; Lixoft) was used to estimate the model parameters. The built-in statistical model consists of an observation model and an individual model based on the structural toxicokinetic model. The observational model was set to a normal distribution, and a residual error model included in the observational model was used as proposed by the software after initial analysis. A lognormally distributed random effect was added to all model parameters. Correlations between parameters were accounted for if proposed by the software. The different genotypes (FLG null/wt, and FLG null/wt CNV20–22/wt CNV23–24) were entered as categorical covariates.

[2] = test system: estrogen receptor 1, androgen receptor, and cytochrome P450 aromatase B; parameters: method as in Blüthgen et al. 2012; details: zebrafish, 84μg/L; ref Blüthgen et al. 2012; cited from earlier work
[3] = parameters: method as in Santamaria et al. 2020; details: ref Santamaria et al. 2020; cited from earlier work
[4] = parameters: method as in Okereke et al. 1993; details: rats; ref Okereke et al. 1993; cited from earlier work
[5] = ref https://efsa.onlinelibrary.wiley.com/doi/pdf/10.2903/j.efsa.2006.61r; cited from earlier work
[6] = test system: aryl hydrocarbon receptor; parameters: method as in Medjakovic et al. 2014; details: in vitro; ref Medjakovic et al. 2014; cited from earlier work
[7] = in vivo, po; cited from earlier work
[8] = ref http://www.popstoolkit.com/tools/HHRA/TDI_USEPA.aspx; cited from earlier work
[9] = FLG null carriers, null/CNV grouping
[10] = FLG null, null vs wt grouping (Table S4)
[11] = FLG null, null/CNV grouping (Table S9)
[12] = FLG wt, null vs wt grouping (Table S4)

SMILES | Absorption rate constant (mean ± SD), adjusted for BMI, age and sex ([1]; FLG null (Table S7)) | Lag time (mean ± SD), adjusted for BMI, age and sex ([1]; FLG null (Table S7)) | Excretion rate constant K (mean ± SD) ([1]; FLG null (Table S9)) | Lag time (mean±SD) [1, 9] | Absorption rate constant (mean±SD) [1, 9] | Dermal absorption rate constant (mean ± SD) [1, 10] | Lag time for dermal absorption (mean ± SD) [1, 10] | Volume of central compartment (mean ± SD) [1, 11] | Absorption rate constant (mean ± SD), adjusted for BMI, age and sex ([1]; FLG wt CNV20–22 (Table S7)) | Lag time (mean ± SD), adjusted for BMI, age and sex ([1]; FLG wt CNV20–22 (Table S7)) | Excretion rate constant K (mean ± SD) ([1]; FLG wt CNV20–22 (Table S9)) | Volume of central compartment (mean ± SD) ([1]; FLG wt CNV20–22 (Table S9)) | Lag time (mean±SD) ([1]; FLG wt CNV20–22 carriers) | Absorption rate constant (mean±SD) ([1]; FLG wt CNV20–22 carriers) | Absorption rate constant (mean ± SD), adjusted for BMI, age and sex ([1]; FLG wt CNV23–24 (Table S7)) | Lag time (mean ± SD), adjusted for BMI, age and sex ([1]; FLG wt CNV23–24 (Table S7)) | Excretion rate constant K (mean ± SD) ([1]; FLG wt CNV23–24 (Table S9)) | Volume of central compartment (mean ± SD) ([1]; FLG wt CNV23–24 (Table S9)) | Lag time (mean±SD) ([1]; FLG wt CNV23–24 carriers) | Absorption rate constant (mean±SD) ([1]; FLG wt CNV23–24 carriers) | also measured
COc1ccc(C(=O)c2ccccc2)c(O)c1 [Oxybenzone, (2-Hydroxy-4-methoxyphenyl)-phenylmethanone] | 0.22 ± 0.06 h⁻¹ | 0.14 ± 0.18 h | 0.05 ± 0.02 h⁻¹ | 0.07 ± 0.01 h | 0.23 ± 0.07 h⁻¹ | 0.29 ± 0.08 h⁻¹ | 0.10 ± 0.02 h | 71.5 ± 32.4 L | 0.20 ± 0.06 h⁻¹ | 0.04 ± 0.04 h | 0.05 ± 0.01 h⁻¹ | 81.5 ± 42.7 L | 0.04 ± 0.009 h | 0.22 ± 0.08 h⁻¹ | 0.13 ± 0.04 h⁻¹ | 0.13 ± 0.17 h | 0.06 ± 0.04 h⁻¹ | 103 ± 52.36 L | 0.23 ± 0.13 h | 0.13 ± .04 h⁻¹ | Dermal absorption rate constant (mean ± SD) [1, 12]: 0.22 ± 0.09 h⁻¹; Lag time for dermal absorption (mean ± SD) [1, 12]: 0.13 ± 0.07 h; Mean dermal absorption rate constant higher for FLG null carriers than wt carriers with CNV23–24 ([1]; Table 2): 77%; Rate constant K21 (mean ± SD) ([1]; FLG null (Table S9)): 0.01 ± 0.006 h⁻¹; Rate constant K21 (mean ± SD) ([1]; FLG wt CNV20–22 (Table S9)): 0.01 ± 0.008 h⁻¹; Rate constant K21 (mean ± SD) ([1]; FLG wt CNV23–24 (Table S9)): 0.007 ± 0.003 h⁻¹; Rate constant K12 (mean ± SD) ([1]; FLG null (Table S9)): 0.31 ± 0.02 h⁻¹; Rate constant K12 (mean ± SD) ([1]; FLG wt CNV20–22 (Table S9)): 0.31 ± 0.02 h⁻¹; Rate constant K12 (mean ± SD) ([1]; FLG wt CNV23–24 (Table S9)): 0.32 ± 0.02 h⁻¹; Dermal absorption rate constant higher for FLG null compared with wt carriers ([1]; null vs wt grouping (Table S4)): 32%; Expression of estrogen receptor 1, androgen receptor, and cytochrome P450 aromatase B [2]: decreased expression; Effect in mice [3]: affect fetal growth and sex ratio; Share of what was found in urine in the form of the parent compound, free and conjugated with glucuronic acid [4]: About 50%
Cc1cc(C)nc(Nc2ccccc2)n1 [Pyrimethanil, 4,6-dimethyl-N-phenyl-2-pyrimidinamine] | – | – | – | – | – | – | – | – | – | – | – | – | – | – | – | – | – | – | – | – | Dermal absorption rate constant higher for FLG null compared with wt carriers ([1]; human, in vivo): 18%; Mean dermal absorption rate constant higher for FLG null carriers than wt carriers with CNV23–24 ([1]; human, in vivo): 50%; acute toxicity [5]: low acute toxicity; aryl hydrocarbon receptor activity [6]: aryl hydrocarbon receptor agonist; Share of the compound found in urine as OH-pyrimethanil [7]: 80%
c1cc2ccc3cccc4ccc(c1)c2c34 [Pyrene, pyrene] | 0.23 ± 0.09 h⁻¹ | 0.89 ± 0.15 h | 0.17 ± 0.02 h⁻¹ | 0.91 ± 0.12 h | 0.16 ± 0.05 h⁻¹ | 0.17 ± 0.06 h⁻¹ | 0.88 ± 0.13 h | 876 ± 344 L | 0.23 ± 0.10 h⁻¹ | 1.06 ± 0.17 h | 0.18 ± 0.04 h⁻¹ | 954 ± 410 L | 1.06 ± 0.16 h | 0.14 ± 0.03 h⁻¹ | 0.14 ± 0.05 h⁻¹ | 1.34 ± 0.32 h | 0.18 ± 0.02 h⁻¹ | 1232 ± 541 L | 1.41 ± 0.29 h | 0.11 ± 0.03 h⁻¹ | Dermal absorption rate constant (mean ± SD) [1, 12]: 0.15 ± 0.06 h⁻¹; Lag time for dermal absorption (mean ± SD) [1, 12]: 1.20 ± 0.25 h; Mean dermal absorption rate constant higher for FLG null carriers than wt carriers with CNV23–24 ([1]; Table 2): 45%; Rate constant K21 (mean ± SD) ([1]; FLG null (Table S9)): 0.02 ± 0.0008 h⁻¹; Rate constant K21 (mean ± SD) ([1]; FLG wt CNV20–22 (Table S9)): 0.02 ± 0.0006 h⁻¹; Rate constant K21 (mean ± SD) ([1]; FLG wt CNV23–24 (Table S9)): 0.02 ± 0.0005 h⁻¹; Rate constant K12 (mean ± SD) ([1]; FLG null (Table S9)): 0.12 ± 0.04 h⁻¹; Rate constant K12 (mean ± SD) ([1]; FLG wt CNV20–22 (Table S9)): 0.12 ± 0.03 h⁻¹; Rate constant K12 (mean ± SD) ([1]; FLG wt CNV23–24 (Table S9)): 0.11 ± 0.02 h⁻¹; tolerable daily intake (TDI) [8]: 0.03 mg/kg
